Target: T1, influenza A virus (IAV) PA-Nter fragment (amino acids 1-209) (Influenza A virus, UniProt P31343)
T1 construct: PA-Nter fragment (amino acids 1-209); made in house
Test: FRET endonuclease activity assay
Type: biochemical
Details: PA-Nter 0.5 μM, 1.6 μM RNA substrate; from initial reaction velocities (v0)

Point of comparison: `CC(C)N1CCn2c(c(O)c(=O)n2Cc2ccccc2)C1=O`, IC50 12.4 µM. Against it:
- CC(C)N1CCn2[nH]c(=O)c(O)c2C1=O — 9.5-fold lower, 1.31 µM
- CC(C)N1CCn2c(c(O)c(=O)n2CCc2ccccc2)C1=O — 1.6-fold lower, 7.54 µM
- CC(C)N1CC(C)n2c(c(O)c(=O)n2Cc2ccccc2)C1=O (stereo not shown) — 4.7-fold lower, 2.63 µM

Target: whole RNP complex of IAV strain A/PR/8/34 (Influenza A virus, UniProt P03433)
Test: Transcription assay (TA assay), Quantigene detection of de novo viral mRNA
Type: biochemical, influenza A virus A/PR/8/34
Details: 80 pM RNPs, 2 nM capped RNA substrate, cell-free; read-out: TA IC50 (unit inferred)

`COC(=O)c1nn2c(c1O)C(=O)N(C(C)C)CC2` showed an IC50 of 79.6 µM.

Same assay, conditions: 80 pM RNPs, 2 nM capped RNA substrate, cell-free; read-out: TA assay IC50

Point of comparison: `CC(C)N1CC(c2ccccc2)n2c(c(O)c(=O)n2Cc2ccccc2)C1=O` (stereo not shown), IC50 5.85 µM. Against it:
- O=C(O)c1nn2c(c1OCc1ccccc1)C(=O)NCC2 — 11-fold lower, 0.532 µM
- O=C(O)c1nn2c(c1O)C(=O)NCC2Cc1ccccc1 (stereo not shown) — 6-fold higher, 35.1 µM
- CN1CC(Cc2ccccc2)n2nc(C(=O)O)c(O)c2C1=O (stereo not shown) — 4.4-fold higher, 25.5 µM
- CC(C)N1CC(Cc2ccccc2)n2nc(C(=O)O)c(O)c2C1=O (stereo not shown) — 2.3-fold higher, 13.2 µM

Source: patent US20170081331A1, “Pyrazolopyrazines and their use in the treatment, amelioration or prevention of a viral disease” (F. Hoffmann-La Roche AG, priority 2015, published 2017)
